The text below walks through data of patent publication US12404291B2, “Antimicrobial agent” (priority 2019, dated 2025).

The subject of data set [1] is E. coli wild type (MG1655). Nature of the data set: MIC and MBC determination. It counts as cell-based. How it is done:
(§1) The bioactivity of these compounds was investigated with respect to the wild type K12-derivative MG1655 and uropathogenic multidrug resistant EC958 ST131 strains of E. coli. Another gram-positive bacteria, ESKAPE bacteria—the pathogenic gastrointestinal strain of Enterococcus faecalis, V583 (ATCC700802)—which is a major opportunistic pathogen (and a leading cause of urinary tract infections) was also tested with respect to the compounds. The minimum inhibitory concentration, MIC, of the four complexes was obtained in both glucose defined minimal media (GDMM) and nutrient rich Mueller-Hinton-II (MH-II) (FIG. 7).
(§2) The same parameters and conditions used above to determine MIC and MBC values with respect to compounds 1^4+ to 4^4+ were employed in order to test the MIC and MBC values of complexes 1^2+ to 4^2+.
(§3) The MIC and MBC values were determined as above.

Data set [2] deals with E. faecalis pathogenic (V583). Nature of the data set: MIC and MBC determination. It counts as cell-based, Enterococcus faecalis. How it is done: as §1, §2, §3
For data set [3], the system named is HPRT. Nature of the data set: HPRT forward mutation assay. The format is cell-based. Particulars: concentrations above the compounds MIC's. The text has this:
It is therefore confirmed that the compounds are non-mutagenic to mammalian DNA.

The nature of data set [4]: physchem. Particulars: pH 7.4, aqueous buffer, kinetic from dmso stock. The format is physicochemical. How it is done:
Table 12 illustrates the kinetic solubility of complexes 4^2+ and 4^4+ were tested and compared to a soluble positive control drug (Nicardipine). Both compounds passed the DMPK analysis with an optimal solubility and kinetic stability.

Data set [5] concerns P. aeruginosa biofilm. The data set is described as follows: Biofilm activity profile (MBEC). The format is cell-based. Particulars: Gram-negative biofilm.
In data set [6] the test system is K. pneumonia biofilm. The data set is described as follows: Biofilm activity profile (MBEC). It counts as cell-based. Particulars: Gram-negative biofilm.
The subject of data set [7] is A. baumannii biofilm. The data set is described as follows: Biofilm activity profile (MBEC). The format is cell-based. Particulars: Gram-negative biofilm.

In brackets after ≈: the same amount, converted by molar mass.

Turning to `CC1(C)S[C@@H]2[C@H](NC(=O)[C@H](N)c3ccccc3)C(=O)N2[C@H]1C(=O)O` [ampicillin], the MBC is 11.4 µM (≈ 3.98 µg/mL) in data set [1] (Escherichia coli, MG1655, GDMM); 11.4 µM (≈ 3.98 µg/mL) in data set [1] (MH-II); 6.3 µM (≈ 2.2 µg/mL) in data set [2] (Enterococcus faecalis, GDMM); 6.3 µM (≈ 2.2 µg/mL) in data set [2] (MH-II). For the same compound, the MIC was found to be 0.5 µM (≈ 0.175 µg/mL) in data set [2] (Enterococcus faecalis, MH-II) and 1 µM (≈ 0.349 µg/mL) in data set [2] (Enterococcus faecalis, GDMM).

On to `N.N.[Cl][Pt][Cl]` [Cisplatin], for which, in data set [3], the Mutations turned out to be 65.5 per 1 × 10^5 viable cells.

With `COC(=O)C1=C(C)NC(C)=C(C(=O)OCCN(C)Cc2ccccc2)C1c1cccc([N+](=O)[O-])c1` (stereo not drawn) [Nicardipine], the solubility is 20.8 µM (≈ 10 µg/mL) in data set [4] and 20.8 µM (≈ 9.97 µg/mL) in data set [4] (Solubility).

For the compound Gentamicin, the “Minimum Biofilm Eradication Concentration (MBEC)” value in data set [5] came out at 18 µM; in data set [6], 18 µM; in data set [7] it was 9 µM.

For orientation: MBC means the lowest tested concentration that kills the bacteria rather than only halting them. A high value points to weaker bactericidal potency. What is called MIC is the smallest concentration in the dilution series that meets the test's criterion for growth inhibition. A higher MIC goes with a less susceptible organism. One may read the solubility as the concentration that dissolves in the medium under given conditions. Read a low solubility as a poorly soluble substance.
